Values of other authors in patent US11382865B2, “Pharmaceutical preparation and method for its manufacture” (BAYER ANIMAL HEALTH GMBH, priority 2016, dated 2022).

Experiments:
[1] = test system: parasitic worms (helminths); details: veterinary parasiticide

Solubility in organic solvents (organic solvents): readily soluble
Solubility in water (water): practically insoluble
SMILES: CO/N=C1\C[C@]2(C[C@@H]3C[C@@H](C/C=C(\C)C[C@@H](C)/C=C/C=C4\CO[C@@H]5[C@H](O)C(C)=C[C@@H](C(=O)O3)[C@]45O)O2)O[C@H](/C(C)=C/C(C)C)[C@H]1C [Moxidectin]
Dose at which active [1]: < 25 μg/kg body weight
